Assay results as given in ChEMBL document CHEMBL1136636, “Carbonic anhydrase inhibitors: inhibition of the tumor-associated isozyme IX with aromatic and heterocyclic sulfonamides” (Bioorg Med Chem Lett, 2003).

Experiments:
[1] = molecular target: Carbonic anhydrase 9 (Homo sapiens, UniProt Q16790)
[2] = molecular target: T1, Carbonic anhydrase 4 (Bos taurus, UniProt Q95323)
T1 sequence (Q95323 whole entry): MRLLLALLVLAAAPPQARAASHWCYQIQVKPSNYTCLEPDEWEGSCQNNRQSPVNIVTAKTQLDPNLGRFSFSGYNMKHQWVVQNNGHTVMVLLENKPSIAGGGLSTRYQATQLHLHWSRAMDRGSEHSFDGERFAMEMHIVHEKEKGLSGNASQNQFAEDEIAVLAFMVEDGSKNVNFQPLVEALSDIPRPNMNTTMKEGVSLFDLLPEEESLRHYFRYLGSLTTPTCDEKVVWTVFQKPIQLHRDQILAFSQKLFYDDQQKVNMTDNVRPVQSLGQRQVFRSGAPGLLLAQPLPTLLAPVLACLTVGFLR

[3] = molecular target: Carbonic anhydrase 1 (Homo sapiens, UniProt P00915)
Sequence of Carbonic anhydrase 1 (P00915 whole entry): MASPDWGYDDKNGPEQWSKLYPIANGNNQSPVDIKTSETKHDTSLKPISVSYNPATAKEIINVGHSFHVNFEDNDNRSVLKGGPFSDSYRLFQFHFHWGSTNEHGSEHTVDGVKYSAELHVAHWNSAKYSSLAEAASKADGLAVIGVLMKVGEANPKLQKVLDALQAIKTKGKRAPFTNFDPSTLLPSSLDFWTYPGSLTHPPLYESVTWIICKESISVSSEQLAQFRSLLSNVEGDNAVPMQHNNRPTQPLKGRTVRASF

SMILES	Ki [1]	Ki [2]	Ki [3]
NS(=O)(=O)c1cccc2cccnc12	32 nM	415 nM	
Nc1ccc(S(N)(=O)=O)cc1I	285 nM		
Nc1ccc(S(=O)(=O)NCCc2ccc(S(N)(=O)=O)cc2)cc1	24 nM	72 nM	
NS(=O)(=O)c1ccc(CCO)cc1	22 nM		
Nc1cc(C(F)(F)F)c(S(N)(=O)=O)cc1S(N)(=O)=O [2,4-DISULFAMYLTRIFLUOROMETHYLANILINE]		154 nM	
NS(=O)(=O)c1ccc(C(=O)O)cc1 [CARZENIDE]	26 nM	86 nM	
Nc1ccc(S(=O)(=O)Nc2ccccc2S(N)(=O)=O)cc1		144 nM	185 nM

Further lines, results first:

Ki [1]	Ki [2]	Ki [3]	SMILES
264 nM			Nc1ccc(S(N)(=O)=O)cc1Cl
30 nM	438 nM	23000 nM	NS(=O)(=O)c1cccc2ccccc12
30 nM			Cn1nc(S(N)(=O)=O)sc1=N
245 nM			Nc1ccc(S(N)(=O)=O)cc1F
21 nM			NS(=O)(=O)c1ccc(CO)cc1
	72 nM		Nc1ccc(S(=O)(=O)NCc2ccc(S(N)(=O)=O)cc2)cc1
34 nM	129 nM		Nc1ccc(S(=O)(=O)Nc2ccc(S(N)(=O)=O)cc2)cc1
16 nM			Nc1nccc(Nc2ccc(S(N)(=O)=O)cc2)n1
33 nM			Nc1ccccc1S(N)(=O)=O
